In paper PMC10892041, “Vanadium Complexes with Thioanilide Derivatives of Amino Acids: Inhibition of Human Phosphatases and Specificity in Various Cell Models of Metabolic Disturbances” (Pharmaceuticals, 2024):

Tests used:
myocytes C2C12 = experiment: Scintillation proximity assay, transport of [14C]-deoxy-D-glucose into myocytes C2C12; type: cell-based, mouse; conditions: 50 µM; control solvent only
Description: The myocyte C2C12 cell line (ATCC CRL-1772), a subclone of myoblasts from mouse muscles, was cultured according to standard protocol in DMEM supplemented with 10% fetal calf serum, 100 IU/ml penicillin, and […] streptomycin at 37 °C in 5% CO2. Cells were pleated on a 96-well microplate and after reach confluence were differentiated in medium with 2% horse serum. Differentiation medium was changed every 72 h.
Scintillation proximity assay (SPA) is a method to measure the real-time accumulation of radiolabeled substrates by adherent cells with no filtration needed. Radioactivity concentrated closer to the scintillator embedded in the plastic bottom of each well provides a stronger signal than the radiolabeled substrate in the culture medium. Uptake of radiolabeled 2-deoxy-D-[U-14C]-glucose was conducted based on previous descriptions.
After 24 h incubation, the tested complexes were added. After 2 h incubation at 37 °C in 5% CO2, the medium was changed to low-glucose medium (1000 mg/L), and the tested complexes were added again, with further incubation for 4 h being conducted.
For cells proceeded as above, 2-deoxy-D-[U-14C]-glucose (250–350 mCi/mmol, NEC720A, PerkinElmer) solution in KRB with a total activity of 0.03 mCi was added to each well. […] Non-specific radioactivity was subtracted from each result (cpm). Two independent experiments with triplicates were conducted.

PP2A = PP2A (Homo sapiens, UniProt P67775); experiment: Inhibition of human recombinant non-tyrosine phosphatase PP2A (DiFMUP); type: biochemical
PP2A, sequence (P67775 whole entry): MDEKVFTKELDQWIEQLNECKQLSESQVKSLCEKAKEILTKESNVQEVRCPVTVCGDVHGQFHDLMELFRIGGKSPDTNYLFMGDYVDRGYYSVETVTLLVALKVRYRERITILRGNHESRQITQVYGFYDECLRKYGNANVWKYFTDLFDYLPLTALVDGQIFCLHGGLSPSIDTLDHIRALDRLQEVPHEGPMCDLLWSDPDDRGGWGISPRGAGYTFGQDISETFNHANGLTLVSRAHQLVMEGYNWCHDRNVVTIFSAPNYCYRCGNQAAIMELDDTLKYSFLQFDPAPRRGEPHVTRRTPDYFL
In short: (§1)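 Compound pre-incubated 10 min with enzyme: PP2A at 0.5 U/mL in 50 mM Tris-HCl pH 7.0, 0.05% Tween-20, 125 µg/mL BSA with 0.1 mM DiFMUP; CDC25A at 400 ng/mL with 0.2 mM 3-O-methylfluorescein phosphate. Incubation 180 min at 23 °C; fluorescence (ex 355/em 560 nm) read, percent inhibition versus vehicle control, triplicate.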

SHP2 = biological target: T1, SHP2 (Homo sapiens, UniProt Q06124); experiment: Inhibition of human recombinant tyrosine phosphatase SHP2 (DiFMUP fluorescence); type: biochemical; conditions: for Inhibition of SHP2, percentage of inhibition of the control: 1 µM, control solvent only, SD did not exceed 6%
T1 construct: purchased Sigma-Aldrich
T1 sequence (Q06124 1-593): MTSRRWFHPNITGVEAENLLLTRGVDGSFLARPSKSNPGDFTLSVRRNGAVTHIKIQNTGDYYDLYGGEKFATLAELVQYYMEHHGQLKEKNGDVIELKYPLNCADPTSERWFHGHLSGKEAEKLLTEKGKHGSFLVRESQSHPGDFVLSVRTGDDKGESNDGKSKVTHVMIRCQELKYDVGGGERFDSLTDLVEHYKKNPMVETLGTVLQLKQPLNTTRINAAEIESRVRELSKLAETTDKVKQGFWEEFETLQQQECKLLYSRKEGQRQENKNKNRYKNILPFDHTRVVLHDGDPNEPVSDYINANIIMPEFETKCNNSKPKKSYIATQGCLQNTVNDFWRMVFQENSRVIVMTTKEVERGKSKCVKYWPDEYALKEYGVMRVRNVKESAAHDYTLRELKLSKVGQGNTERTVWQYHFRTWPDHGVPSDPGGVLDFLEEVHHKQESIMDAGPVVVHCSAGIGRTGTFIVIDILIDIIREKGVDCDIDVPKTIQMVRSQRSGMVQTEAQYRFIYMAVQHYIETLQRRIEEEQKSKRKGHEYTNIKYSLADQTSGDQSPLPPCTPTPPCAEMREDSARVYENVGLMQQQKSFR
In short: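 Human recombinant phosphatases (SHP1 400 ng/mL, SHP2 50 ng/mL, LAR 5 ng/mL final) were pre-incubated 10 min with compound in 25 mM MOPS pH 7.0, 50 mM NaCl, 1 mM DTT, 0.05% Tween-20. DiFMUP (0.1 mM final) was added for 20 min at 23 °C and fluorescence read at 355/560 nm. Screening used 1 µM compound (% inhibition vs vehicle); IC50 also reported.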

CDC25A = biological target: T2, CDC25A (Homo sapiens, UniProt P30304); experiment: Inhibition of human recombinant non-tyrosine phosphatase CDC25A (3-O-methylfluorescein phosphate); type: biochemical
T2 construct: purchased Sigma-Aldrich
T2 sequence (P30304 1-524): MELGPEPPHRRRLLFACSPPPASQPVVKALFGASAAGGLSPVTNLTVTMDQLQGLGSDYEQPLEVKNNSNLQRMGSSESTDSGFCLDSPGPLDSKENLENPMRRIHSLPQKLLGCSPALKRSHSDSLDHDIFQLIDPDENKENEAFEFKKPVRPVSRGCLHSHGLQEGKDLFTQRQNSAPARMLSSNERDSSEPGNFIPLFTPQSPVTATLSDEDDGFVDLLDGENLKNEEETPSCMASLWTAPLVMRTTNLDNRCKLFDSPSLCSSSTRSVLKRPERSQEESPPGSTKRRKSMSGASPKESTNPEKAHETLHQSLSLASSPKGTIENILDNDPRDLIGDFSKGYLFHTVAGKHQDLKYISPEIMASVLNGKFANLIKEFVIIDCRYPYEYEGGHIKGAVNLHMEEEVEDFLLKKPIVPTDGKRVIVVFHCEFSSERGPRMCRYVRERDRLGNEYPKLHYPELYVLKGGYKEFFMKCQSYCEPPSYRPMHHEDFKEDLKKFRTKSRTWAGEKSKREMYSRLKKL
In short: as §1

SMILES | Transport of [14C]-deoxy-D-glucose into C2C12 myocytes, % of the control (myocytes C2C12) | Inhibition of PP2A, percentage inhibition of control ± SD (PP2A; 1 µM) [%] | Inhibition of PP2A, percentage inhibition of control ± SD (PP2A; 10 µM) [%] | IC50 (SHP2) [nM] | Inhibition of SHP2, percentage of inhibition of the control (SHP2) [%] | Inhibition of CDC25A, percentage inhibition of control ± SD (CDC25A; 1 µM) [%] | Inhibition of CDC25A, percentage inhibition of control ± SD (CDC25A; 10 µM) [%]
Cc1occc(=O)c1[O-].Cc1occc(=O)c1[O-].[O]=[V+2] [BMOV, bis(maltolato)oxidovanadium(IV), reference compound] | 125 % of control | 52 ± 15 | 63 ± 4 | 8 | 82 | 54 ± 1 | 61 ± 1
O=S(=O)([O-])[O-].[O]=[V+2] [VOSO4, reference compound] | 110 % of control | 32 ± 2 | 40 ± 3 | 13 | 77 | 54 ± 2 | 62 ± 1
